# Molecular target: human JAK1 (a.a. 837-1142)
# Assay: In vitro JAK kinase assay (HTRF, phosphorylation of a biotinylated peptide), JAK1
# Type: biochemical
# Conditions: measured at 1 mM ATP; JAK2 IC50 / JAK1 IC50
# Description: Compounds herein were tested for inhibitory activity of JAK targets according to the following in vitro assay described in Park et al., Analytical Biochemistry 1999, 269, 94-104. The catalytic domains of human JAK1 (a.a. 837-1142), Jak2 (a.a. 828-1132) and Jak3 (a.a. 781-1124) with an N-terminal His tag were expressed using baculovirus in insect cells and purified. The catalytic activity of JAK1, JAK2 or JAK3 was assayed by measuring the phosphorylation of a biotinylated peptide. The phosphorylated peptide was detected by homogenous time resolved fluorescence (HTRF). […] Reactions were carried out at room temperature for 1 hr and then stopped with 20 μL 45 mM EDTA, 300 nM SA-APC, 6 nM Eu-Py20 in assay buffer (Perkin Elmer, Boston, Mass.). Binding to the Europium labeled antibody took place for 40 minutes and HTRF signal was measured on a Fusion plate reader (Perkin Elmer, Boston, Mass.).
row,Compound,IC50 Ratio JAK2/JAK1
1,"N#CCC1(n2cc(-c3ncnc4[nH]ccc34)cn2)CN(C2CCN(C(=O)c3ccc(F)cc3F)CC2)C1 [Example 42, {1-[1-(2,4-difluorobenzoyl)piperidin-4-yl]-3-[4-(7H-pyrrolo[2,3-d]pyrimidin-4-yl)-1H-pyrazol-1-yl]azetidin-3-yl}acetonitrile]",6.7
2,"N#CCC1(n2cc(-c3ncnc4[nH]ccc34)cn2)CN(C2CCN(C(=O)c3c(F)cccc3C(F)(F)F)CC2)C1 [Example 45, {1-{1-[2-fluoro-6-(trifluoromethyl)benzoyl]piperidin-4-yl}-3-[4-(7H-pyrrolo[2,3-d]pyrimidin-4-yl)-1H-pyrazol-1-yl]azetidin-3-yl}acetonitrile]",3.1
3,"N#CCC1(n2cc(-c3ncnc4[nH]ccc34)cn2)CN(C2CCN(C(=O)c3ccc(F)c(F)c3F)CC2)C1 [Example 46, {3-[4-(7H-pyrrolo[2,3-d]pyrimidin-4-yl)-1H-pyrazol-1-yl]-1-[1-(2,3,4-trifluorobenzoyl)piperidin-4-yl]azetidin-3-yl}acetonitrile]",6.3
4,"N#CCC1(n2cc(-c3ncnc4[nH]ccc34)cn2)CN(C2CCN(C(=O)c3c(F)cc(F)cc3F)CC2)C1 [Example 49, {3-[4-(7H-pyrrolo[2,3-d]pyrimidin-4-yl)-1H-pyrazol-1-yl]-1-[1-(2,4,6-trifluorobenzoyl)piperidin-4-yl]azetidin-3-yl}acetonitrile]",6.5
5,"CN(C)c1ccc(C(=O)N2CCC(N3CC(CC#N)(n4cc(-c5ncnc6[nH]ccc56)cn4)C3)CC2)c(F)c1C#N [Example 51, 3-[(4-{3-(cyanomethyl)-3-[4-(7H-pyrrolo[2,3-d]pyrimidin-4-yl)-1H-pyrazol-1-yl]azetidin-1-yl}piperidin-1yl)carbonyl]-6-(dimethylamino)-2-fluorobenzonitrile]",6.3
6,"N#CCC1(n2cc(-c3ncnc4[nH]ccc34)cn2)CN(C2CCN(C(=O)c3ccc(C(F)(F)F)c(F)c3)CC2)C1 [Example 52, {1-{1-[3-fluoro-4-(trifluoromethyl)benzoyl]piperidin-4-yl}-3-[4-(7H-pyrrolo[2,3-d]pyrimidin-4-yl)-1H-pyrazol-1-yl]azetidin-3-yl}acetonitrile]",4.4
7,"N#CCC1(n2cc(-c3ncnc4[nH]ccc34)cn2)CN(C2CCN(C(=O)c3cc(Cl)cc(C(F)(F)F)n3)CC2)C1 [Example 53, {1-(1-{[4-chloro-6-(trifluoromethyl)pyridin-2-yl]carbonyl}piperidin-4-yl)-3-[4-(7H-pyrrolo[2,3-d]pyrimidin-4-yl)-1H-pyrazol-1-yl]azetidin-3-yl}acetonitrile]",9.4
8,"N#CCC1(n2cc(-c3ncnc4[nH]ccc34)cn2)CN(C2CCN(C(=O)c3cc(F)c(F)c(F)c3F)CC2)C1 [Example 54, {3-[4-(7H-pyrrolo[2,3-d]pyrimidin-4-yl)-1H-pyrazol-1-yl]-1-[1-(2,3,4,5-tetrafluorobenzoyl)piperidin-4-yl]azetidin-3-yl}acetonitrile]",9.1
9,"CN(C)c1ccc(C(=O)N2CCC(N3CC(CC#N)(n4cc(-c5ncnc6[nH]ccc56)cn4)C3)CC2)cc1C#N [Example 59, 5-[(4-{3-(cyanomethyl)-3-[4-(7H-pyrrolo[2,3-d]pyrimidin-4-yl)-1H-pyrazol-1-yl]azetidin-1-yl}piperidin-1yl)carbonyl]-2-(dimethylamino)benzonitrile]",4.6

# Results, then the compound that gave them:
row,IC50 Ratio JAK2/JAK1,Compound
1,4.8,"COc1cc(F)ccc1C(=O)N1CCC(N2CC(CC#N)(n3cc(-c4ncnc5[nH]ccc45)cn3)C2)CC1 [Example 40, {1-[1-(4-fluoro-2-methoxybenzoyl)piperidin-4-yl]-3-[4-(7H-pyrrolo[2,3-d]pyrimidin-4-yl)-1H-pyrazol-1-yl]azetidin-3-yl}acetonitrile]"
2,4.9,"N#CCC1(n2cc(-c3ncnc4[nH]ccc34)cn2)CN(C2CCN(C(=O)c3cccc(F)c3F)CC2)C1 [Example 41, {1-[1-(2,3-difluorobenzoyl)piperidin-4-yl]-3-[4-(7H-pyrrolo[2,3-d]pyrimidin-4-yl)-1H-pyrazol-1-yl]azetidin-3-yl}acetonitrile]"
3,5.0,"N#CCC1(n2cc(-c3ncnc4[nH]ccc34)cn2)CN(C2CCN(C(=O)c3cc(F)ccc3F)CC2)C1 [Example 43, {1-[1-(2,5-difluorobenzoyl)piperidin-4-yl]-3-[4-(7H-pyrrolo[2,3-d]pyrimidin-4-yl)-1H-pyrazol-1-yl]azetidin-3-yl}acetonitrile]"
4,2.9,"N#CCC1(n2cc(-c3ncnc4[nH]ccc34)cn2)CN(C2CCN(C(=O)c3c(F)cccc3F)CC2)C1 [Example 44, {1-[1-(2,6-difluorobenzoyl)piperidin-4-yl]-3-[4-(7H-pyrrolo[2,3-d]pyrimidin-4-yl)-1H-pyrazol-1-yl]azetidin-3-yl}acetonitrile]"
5,3.7,"N#CCC1(n2cc(-c3ncnc4[nH]ccc34)cn2)CN(C2CCN(C(=O)c3c(F)ccc(F)c3F)CC2)C1 [Example 47, {3-[4-(7H-pyrrolo[2,3-d]pyrimidin-4-yl)-1H-pyrazol-1-yl]-1-[1-(2,3,6-trifluorobenzoyl)piperidin-4-yl]azetidin-3-yl}acetonitrile]"
6,6.5,"N#CCC1(n2cc(-c3ncnc4[nH]ccc34)cn2)CN(C2CCN(C(=O)c3cc(F)c(F)cc3F)CC2)C1 [Example 48, {3-[4-(7H-pyrrolo[2,3-d]pyrimidin-4-yl)-1H-pyrazol-1-yl]-1-[1-(2,4,5-trifluorobenzoyl)piperidin-4-yl]azetidin-3-yl}acetonitrile]"
7,6.9,"COc1c(Br)cc(C(=O)N2CCC(N3CC(CC#N)(n4cc(-c5ncnc6[nH]ccc56)cn4)C3)CC2)cc1Br [Example 50, {1-[1-(3,5-dibromo-4-methoxybenzoyl)piperidin-4-yl]-3-[4-(7H-pyrrolo[2,3-d]pyrimidin-4-yl)-1H-pyrazol-1-yl]azetidin-3-yl}acetonitrile]"
8,7.5,"COc1ccc(C(=O)N2CCC(N3CC(CC#N)(n4cc(-c5ncnc6[nH]ccc56)cn4)C3)CC2)cc1C#N [Example 55, 5-[(4-{3-(cyanomethyl)-3-[4-(7H-pyrrolo[2,3-d]pyrimidin-4-yl)-1H-pyrazol-1-yl]azetidin-1-yl}piperidin-1-yl)carbonyl]-2-methoxybenzonitrile]"
9,8.8,"N#CCC1(n2cc(-c3ncnc4[nH]ccc34)cn2)CN(C2CCN(C(=O)c3c(F)c(F)cc(F)c3F)CC2)C1 [Example 56, {3-[4-(7H-pyrrolo[2,3-d]pyrimidin-4-yl)-1H-pyrazol-1-yl]-1-[1-(2,3,5,6-tetrafluorobenzoyl)piperidin-4-yl]azetidin-3-yl}acetonitrile]"
10,3.3,"N#CCC1(n2cc(-c3ncnc4[nH]ccc34)cn2)CN(C2CCN(C(=O)c3ccnc(C(F)(F)F)c3)CC2)C1 [Example 57, (3-[4-(7H-pyrrolo[2,3-d]pyrimidin-4-yl)-1H-pyrazol-1-yl]-1-{1-[2-(trifluoromethyl)isonicotinoyl]piperidin-4-yl}azetidin-3-yl)acetonitrile]"
11,5.0,"N#CCC1(n2cc(-c3ncnc4[nH]ccc34)cn2)CN(C2CCN(C(=O)c3ccc(F)c(O)c3)CC2)C1 [Example 58, {1-[1-(4-fluoro-3-hydroxybenzoyl)piperidin-4-yl]-3-[4-(7H-pyrrolo[2,3-d]pyrimidin-4-yl)-1H-pyrazol-1-yl]azetidin-3-yl} acetonitrile]"
